Test results: PubChem BioAssay (NCI)
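Each compound was tested at five concentrations against cells in 96-well plates for 48 hours. TGI: concentration producing complete growth inhibition.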

Experiments:
Assay in all cases: inhibition of tumour cell growth, NCI panel, 48 h
SN12C renal = test system: SN12C renal
NCI-H522 lung = test system: NCI-H522 lung
OVCAR-8 ovarian = test system: OVCAR-8 ovarian
SK-MEL-28 melanoma = test system: SK-MEL-28 melanoma
RXF 393 renal = test system: RXF 393 renal
LOX IMVI melanoma = test system: LOX IMVI melanoma
SK-MEL-5 melanoma = test system: SK-MEL-5 melanoma
UACC-257 melanoma = test system: UACC-257 melanoma
MDA-MB-231 breast = test system: MDA-MB-231 breast
NCI-H226 lung = test system: NCI-H226 lung

SMILES | TGI (SN12C renal) | TGI (NCI-H522 lung) | TGI (OVCAR-8 ovarian) | TGI (SK-MEL-28 melanoma) | TGI (RXF 393 renal) | TGI (LOX IMVI melanoma) | TGI (SK-MEL-5 melanoma) | TGI (UACC-257 melanoma) | TGI (MDA-MB-231 breast) | TGI (NCI-H226 lung)
CSc1c(C(=O)Nc2ccc(Cl)cc2)c(N)n(N)c(=O)c1C#N | > 100 µM | > 100 µM | > 100 µM | > 100 µM | > 100 µM | > 100 µM | > 100 µM | > 100 µM | > 100 µM | > 100 µM
CNc1ncc(-c2nnnn2-c2ccccc2)c(CN(C)C)n1 | > 100 µM | > 100 µM | > 100 µM | > 100 µM | > 100 µM | > 100 µM | > 100 µM | > 100 µM | > 100 µM | > 100 µM
COc1ccc(/C=C/C2=NN(c3cccc(S(=O)(=O)O)c3)C3(C2)SCC(=O)N3c2nc3ccccc3s2)cc1 (stereo not given) | > 100 µM | > 100 µM | > 100 µM | > 100 µM | > 100 µM | > 100 µM | > 100 µM | > 100 µM | > 100 µM | > 100 µM
CC(=N\N)/C(C)=N/N=C(C)/C(C)=N/N=C(C)/C(C)=N/N | > 100 µM | > 100 µM | > 100 µM | > 100 µM | > 100 µM | > 100 µM | > 100 µM | > 100 µM | > 100 µM | > 100 µM
C[N+]1(CCN[N+]2(C)CCCCC2)CCc2ccccc2C1 (stereo not given) | > 100 µM | > 100 µM | > 100 µM | > 100 µM | > 100 µM | > 100 µM | > 100 µM | > 100 µM | > 100 µM | > 100 µM
O=C(NC(=S)NC(=O)c1cc(O)c(O)c(O)c1)c1cc(O)c(O)c(O)c1 | 53.7 µM | 70.3 µM | 44.5 µM | 73.9 µM | 41.5 µM | 60.3 µM | 57.7 µM | 44.8 µM | 74.1 µM | > 100 µM
C(=C\N1CCCCC1)/c1nnnn1-c1ccccc1 | > 100 µM | > 100 µM | 95 µM | > 100 µM | 56.6 µM | 50.9 µM | 58.9 µM | > 100 µM | 61.6 µM | > 100 µM
O=C(Nc1ccccc1)c1cc(S(=O)(=O)N2CCNNC2=O)c(S)cc1Cl | > 100 µM | > 100 µM | > 100 µM | > 100 µM | 74.4 µM | > 100 µM | > 100 µM | > 100 µM | 95 µM | > 100 µM
O=C1Nc2ccccc2/C1=c1\[nH]c(=O)/c(=C\c2ccc(OCc3ccccc3)cn2)[nH]c1=O | > 100 µM | > 100 µM | > 100 µM | > 100 µM | 34.9 µM | > 100 µM | > 100 µM | > 100 µM | 91.7 µM | > 100 µM
